Source: patent publication US12016858B2, “Methods for the treatment of abnormal involuntary movement disorders” (AUSPEX PHARMACEUTICALS, INC., priority 2015, dated 2024)

What was measured:
[1] = tested on: cardiac repolarization (QTcF interval); assay: TQT study, six-period crossover, placebo- and positive-controlled; format: in vivo, healthy volunteers; conditions: for Maximum Placebo-Adjusted Change from Baseline in QTcF: fed
Protocol: Study Design. Given the known risk for tetrabenazine to increase the QT interval, a TQT study of deutetrabenazine, which included tetrabenazine as a treatment arm, was conducted in 48 healthy volunteers. This was a single-center, randomized, double-blind, placebo- and positive-controlled six-period crossover study to evaluate the effects of low-dose (12 mg) and high-dose (24 mg) deutetrabenazine on cardiac repolarization, based on placebo-corrected, time-matched changes from baseline in the QTcF interval. Assay sensitivity was established by using moxifloxacin 400 mg as the positive control.
The key outcome measure was to determine the effect of single doses of deutetrabenazine on the QTc interval.
In the table above, ΔΔQTcF is defined as the difference between the least squares mean change from baseline for the active drug and placebo. deutetrabenazine was compared with deutetrabenazine placebo (administered under fed conditions) and tetrabenazine was compared with tetrabenazine placebo (administered under fasted conditions). […] The upper limit of the 95% one-sided confidence interval is the upper limit of the 90% 2-sided confidence interval.

[2] = tested on: subjects with moderate to severe drug-induced tardive dyskinesia (TD); assay: Open-label, single-arm long-term study in tardive dyskinesia; format: in vivo, human; conditions: by Week 6
Protocol: An open-label, single-arm study in which male and female subjects with moderate to severe drug-induced tardive dyskinesia (TD) was conducted to evaluate the safety and tolerability of long-term maintenance therapy with deutetrabenazine, and to evaluate the efficacy of long-term maintenance therapy of deutetrabenazine to reduce the severity of abnormal involuntary movements of TD. Study Design. […] Dose Regimen. Deutetrabenazine tablets were provided in dosage strengths of 6, 9, 12, 15, and 18 mg. During dose adjustment/titration, deutetrabenazine was supplied in weekly blister cards. During long-term treatment, deutetrabenazine will be supplied in 30-count bottles. Study drug were administered as follows. All treatment regimens were administered twice daily (BID) with meals, approximately 10 hours apart during the day. […] If a subject experienced a clinically significant AE attributable to deutetrabenazine, the Investigator determined if a dose reduction or suspension was necessary. […] During titration, the investigator, in consultation with the subject determined when an adequate level of dyskinesia control had been achieved. […] If a subject experienced a clinically significant AE attributable to deutetrabenazine, the investigator determined if a dose reduction or suspension was necessary. […]

## [2H]C([2H])([2H])Oc1cc2c(cc1OC([2H])([2H])[2H])C1CC(=O)C(CC(C)C)CN1CC2 (stereo not drawn) [deutetrabenazine, (RR, SS)-1,3,4,6,7,11b-hexahydro-9,10-di(methoxy-d3)-3-(2-methylpropyl)-2H-benzo[a]quinolizin-2-one]
[1]; 12 mg single dose
  Maximum Placebo-Adjusted Change from Baseline in QTcF: 2.8 ms
[1]; 24 mg single dose
  Maximum Placebo-Adjusted Change from Baseline in QTcF: 4.5 ms
[1]; in vivo
  time point at which the maximal ΔΔQTcF was observed: 8 h
[2]
  subjects much or very much improved according to PGIC and CGIC: over 50%
